The values below come from paper PMC10590383, “Repurposing conformational changes in ANL superfamily enzymes to rapidly generate biosensors for organic and amino acids” (Nature Communications, 2023).

Type in all cases: biochemical
What all share (conditions): n = 3

The target in test [1] is T1, GECFINDER-Phe3 (Aneurinibacillus migulanus, UniProt P0C061).
T1 construct: gene grsA; GrsA-PheA-PCP; cpEGFP inserted in hinge B, linkers VF-QS
T1 sequence (P0C061 1-617): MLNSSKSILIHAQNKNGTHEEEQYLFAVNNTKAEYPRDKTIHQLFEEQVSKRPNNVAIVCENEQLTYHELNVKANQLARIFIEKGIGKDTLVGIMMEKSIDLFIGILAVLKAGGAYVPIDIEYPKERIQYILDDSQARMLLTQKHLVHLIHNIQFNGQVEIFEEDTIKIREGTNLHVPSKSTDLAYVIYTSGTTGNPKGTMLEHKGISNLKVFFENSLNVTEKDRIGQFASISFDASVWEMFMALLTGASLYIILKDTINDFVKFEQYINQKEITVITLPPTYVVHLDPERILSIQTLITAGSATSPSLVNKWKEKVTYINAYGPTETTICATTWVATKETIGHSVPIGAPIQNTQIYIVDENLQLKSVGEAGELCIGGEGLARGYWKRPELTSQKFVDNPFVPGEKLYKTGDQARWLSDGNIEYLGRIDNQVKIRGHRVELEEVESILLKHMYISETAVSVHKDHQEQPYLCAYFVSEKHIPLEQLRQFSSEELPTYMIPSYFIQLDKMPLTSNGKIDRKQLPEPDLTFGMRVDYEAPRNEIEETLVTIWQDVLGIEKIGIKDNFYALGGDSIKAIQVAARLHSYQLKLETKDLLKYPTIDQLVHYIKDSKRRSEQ
In words: Fluorescence dose-response of purified […]-Phe3 with phenylalanine in 100 mM Tris at pH 6.5, room temperature, 1 mM ATP, 2.5 mM MgCl2. An excerpt: (§1) As cpEGFP is sensitive to pH, we conducted a dose-response curve and fluorescence intensity analysis of […]-Phe3 at varying pH levels. […] In addition, we expanded the range of ligand-binding domains (LBDs) applicable to […] and attempted optimization of insertion sites for cpEGFP with limited success. Please refer to Supplemental Note 1 for detailed information.
(§2) The study conducted dose–response curve, substrate specificity, and fluorescent spectrum analyses in 100-mM Tris buffer (pH = 7.5), while pH stability experiments were performed in 100-mM Tris buffer at three different pH values (6.5, 7.5, and 8.5) at room temperature. […] Fluorescent signals were detected using a Microplate Reader (Synergy H4, Bio Tek) at an excitation/emission wavelength of 460 nm/510 nm or 480 nm/510 nm. The dose-response curve was determined immediately after the addition of the analyte. The total duration of the measurement was 15 min, with readings taken at one-minute intervals. The dose-response curve was plotted using the fluorescence values obtained after achieving stability in the fluorescence signal. […] The thermal stability of […] was analyzed using the UNcle multifunctional protein stability analysis system. […] Absolute fluorescence quantum yields were measured using an absolute photoluminescence quantum yield spectrometer (FS5, Edinburgh). […]

Test [2] addresses T1, GECFINDER-Phe3. In words: Fluorescence dose-response of purified […]-Phe3 with phenylalanine in 100 mM Tris at pH 8.5, room temperature, 1 mM ATP, 2.5 mM MgCl2.
Excerpt: as §1, §2

In a further test the target is T2, GECFINDER-Phe1 (Aneurinibacillus migulanus, UniProt P0C061).
T2 construct: gene grsA; GrsA-PheA-PCP; cpEGFP inserted in hinge B, linkers CC-DR
The experiment in a line: Fluorescence dose-response of purified cpEGFP sensors (0.75 uM) in 100 mM Tris-HCl pH 7.5, room temperature, 1 mM ATP, 2.5 mM MgCl2; excitation 400, 460 or 480 nm by sensor, emission 510 nm; logistic five-parameter fit. The procedure:
(§3) Fig. 3 Dose–response curves and fluorescence spectrums of […]s. a, c, e, g, i, k Dose–response curve of purified […]s with increasing concentrations of ligand in 100 mM Tris-HCl buffer (pH=7.5). The normalized ΔF/F0 value increased after ligand binding. All data shown are mean ± S.D. (n = 3 biologically independent samples). b, d, f, h, j, l The fluorescence spectra of […]s changed as the ligand concentration increased. All data shown are mean ± S.D. (n = 3 biologically independent samples). Source data are provided as a Source data file.
(§4) The study conducted dose–response curve, substrate specificity, and fluorescent spectrum analyses in 100-mM Tris buffer (pH = 7.5), while pH stability experiments were performed in 100-mM Tris buffer at three different pH values (6.5, 7.5, and 8.5) at room temperature. […] protein at a concentration of 0.75 μM, various small molecule concentrations, 1 mM ATP, and 2.5 mM MgCl2 were used in the experiments. Fluorescent signals were detected using a Microplate Reader (Synergy H4, Bio Tek) at an excitation/emission wavelength of 460 nm/510 nm or 480 nm/510 nm. The dose-response curve was determined immediately after the addition of the analyte. The total duration of the measurement was 15 min, with readings taken at one-minute intervals. The dose-response curve was plotted using the fluorescence values obtained after achieving stability in the fluorescence signal. The dose-response curves were fitted using the logistic model LOGISTIC5 available in Origin 2021, which could provide a more adequate fit to asymmetric dose-response data[62],[63]. Excitation spectra were scanned from 300 to 540 nm with a step size of 5 nm, and the emission wavelength was set to 560 nm. Emission spectra were scanned from 470 to 700 nm with a step size of 5 nm, and the excitation wavelength was set to 450 nm. The thermal stability of […] was analyzed using the UNcle multifunctional protein stability analysis system. Measurements were performed in 20 mM MOPS buffer with 2 mM DTT at a sample concentration of 1 mg/mL. Absolute fluorescence quantum yields were measured using an absolute photoluminescence quantum yield spectrometer (FS5, Edinburgh).

The next test addresses T3, GECFINDER-Phe2 (Aneurinibacillus migulanus, UniProt P0C061).
T3 construct: gene grsA; GrsA-PheA-PCP; cpEGFP inserted in hinge B, linkers CV-LL
The description is as above. The protocol:
as §3, §4

Test [3] addresses T1, GECFINDER-Phe3. The test is described as above. The protocol: as §3, §4

Molecules are shown by their SMILES.

As usually defined, the EC50 is the concentration at which the effect is half-maximal. As for `N[C@@H](Cc1ccccc1)C(=O)O` [Phe, phenylalanine], the EC50 was determined as 2.03 µM on GECFINDER-Phe3 [1]; 2.38 µM at GECFINDER-Phe3 [2]; 1.55 ± 0.23 µM at GECFINDER-Phe1; 1.47 ± 0.15 µM at GECFINDER-Phe2; 1.91 ± 0.08 µM on GECFINDER-Phe3 [3].
